Publication PMC12700049, “Peptides From Adzuki Bean and Soybean Improved Insulin‐AKT Signaling‐Related Pathways in Healthy and Insulin‐Resistant States in Human Liver Cells” (Molecular Nutrition & Food Research, 2025)
pIC50: −log10 of the molar value. Marks after values point to notes of the source that are not given here. Peptide text beside a SMILES is read from it.

What was measured:
[1] = molecular target: purified human DPP IV enzyme (Homo sapiens, UniProt P27487); test: Luminescence DPPIV‐GLO DPP IV inhibition biochemical assay (cell‐free system)
Experimental: The luminescence DPPIV‐GLO Protease assay (G8351, Promega, Madison, WI) was performed to measure the DPP IV inhibitory capacity of selected AB7S peptides and S7S peptides. Percent inhibition was calculated for each sample. Results were presented as percent inhibition per log (µg peptide/mL). The inhibitory concentration (IC) values of the peptides were calculated using Origin Pro software (Version 2021, OriginLab Corporation, Northampton, MA, USA).

[2] = molecular target: T1, DPP IV activity in HepG2 cells (Homo sapiens, UniProt P27487); test: Luminescence DPP IV assay in the cell‐based system (HepG2); conditions: 24 h treatment; for IC20: read-out: DPP IV inhibition IC20
T1 construct: dose‐response in vitro experiments conducted using the HepG2 cell culture; host or cells: HepG2
Experimental: (§1) HepG2 cells were seeded in either 96‐well plates or 6‐well plates for 24 h. For the healthy cell model (NG), cells were incubated in a medium with a healthy/normal glucose level (5.5 mM glucose), and no stimulation was performed. For the insulin‐resistant cell model (HG), cells were stimulated according to the methods used in a previous publication. In brief, cells were treated for 24 h using 25 mM glucose with 100 nM insulin to stimulate insulin resistance in the HepG2 cells. After seeding or insulin‐resistant stimulation, the cells were treated with selected pure AB7S peptides, selected pure S7S peptides, peptide Asp‐Leu‐Asp‐Val (DLDV; peptide with no DPP IV inhibitory capacity), or 1 nM linagliptin (DPP IV inhibitor) for 24 h. […] Treated cells were used to either perform cell viability assays or were collected, centrifuged, and stored at −80°C until being used.
DPP IV inhibition was measured using the luminescence DPPIV‐GLO Protease assay (G8351, Promega, Madison, WI). In brief, treated cells were incubated with three concentrations of selected pure AB7S peptides or selected pure S7S peptides for 24 h, and linagliptin (1 nM) was used as a positive control. Treated cells were collected and stored at −80°C for no more than one week until being used for the DPPIV‐GLO protease assay. Percent inhibition was calculated, and results were presented as percent inhibition per log (µg peptide/mL). The IC values of the peptides were calculated using Origin Pro software (Version 2021, OriginLab Corporation, Northampton, MA, USA).

IRS‐1 = test: Western blot IRS‐1 protein expression in HepG2 cells; format: cell-based, human; conditions: VP 9.58 µM, IPA 7.86 µM, DLDV 1790 µM, 24 h; for IRS‐1 protein expression, increase over untreated controls: healthy state (NG, 5.5 mM glucose), linagliptin 1 nM; for IRS‐1 protein expression, increase over untreated insulin‐resistant cells: insulin‐resistant state (HG, 25 mM glucose with 100 nM insulin)
Experimental: as §1
(§2) Cells treated with VP (9.58 µM), IPA (7.86 µM), DLDV (1790 µM), or linagliptin (1 nM) and untreated cells were used for western blot. In brief, membranes were incubated with conjugated antibodies for human IRS‐1 (sc‐8038 HRP, 1:100) and Akt‐1 (sc‐5298 HRP, 1:100), or ACCα (sc‐137104 HRP, 1:100) overnight at 4°C and washed. Membranes were also incubated with unconjugated primary antibodies for human Glut 2 (07‐1402, 1:1000), then washed and probed with secondary sheep anti‐mouse and donkey anti‐rabbit antibodies (NA931V and NA934V, 1:2500, 2 h, room temperature; Cytiva, Marlborough, MA, USA). GAPDH (sc‐25778 HRP or sc‐47724, 1:4000) was used as the protein loading control and was used to evaluate the relative expression of each protein. Clarity Western ECL Substrate (Bio‐Rad, Hercules, CA, USA) and ImageQuant 800 System (GE Healthcare, Buckinghamshire, UK) were used for imaging.

Akt‐1 = test: Western blot Akt‐1 protein expression in HepG2 cells; format: cell-based, human; conditions: VP 9.58 µM, IPA 7.86 µM, DLDV 1790 µM, 24 h; for Akt‐1 protein expression, increase over untreated controls: healthy state (NG, 5.5 mM glucose), linagliptin 1 nM; for Akt‐1 protein expression, increase over untreated insulin‐resistant cells: insulin‐resistant state (HG, 25 mM glucose with 100 nM insulin)
Experimental: as §1, §2

Glut 2 [3] = test: Western blot Glut 2 protein expression in HepG2 cells; format: cell-based, human; conditions: for Glut 2 protein expression, increase over untreated controls: healthy state (NG, 5.5 mM glucose), linagliptin 1 nM; for Glut 2 protein expression, increase over untreated controls / Glut 2 protein expression, increase over untreated insulin‐resistant cells: VP 9.58 µM, IPA 7.86 µM, DLDV 1790 µM, 24 h; for Glut 2 protein expression, increase over untreated insulin‐resistant cells: insulin‐resistant state (HG, 25 mM glucose with 100 nM insulin)
Experimental: as §1, §2

ACCα = test: Western blot ACCα protein expression in HepG2 cells; format: cell-based, human; conditions: VP 9.58 µM, IPA 7.86 µM, DLDV 1790 µM, 24 h; for ACCα protein expression, change versus untreated controls: healthy state (NG, 5.5 mM glucose), linagliptin 1 nM; for ACCα protein expression, change versus untreated insulin‐resistant cells: insulin‐resistant state (HG, 25 mM glucose with 100 nM insulin)
Experimental: as §1, §2

Glut 2 [4] = test: Glut 2 immunocytochemical fluorescence confocal microscopy in HepG2 cells; format: cell-based, human; conditions: VP 9.58 µM, linagliptin 1 nM; for Glut 2 fluorescence emission, higher than the untreated control: healthy state; for Glut 2 fluorescence emission, increase compared to the untreated insulin‐resistant cells: insulin‐resistant state
Experimental: as §1
The expression of Glut 2 due to the peptide treatment (VP, 9.58 µM) was investigated in HepG2 cells seeded in Ibidi imaging dish (Ibidi, Fitchburg, WI, USA). Cells were treated as described in Section 2.4. The positive control (1 nM linagliptin) was also tested. The immunocytochemical fluorescence confocal microscopy was performed according to a previous procedure. In brief, cells were fixed, permeabilized, blocked, and incubated with Glut 2 antibodies (07‐1402, 1:1000) overnight at 4°C. Cells were then washed twice, incubated with anti‐rabbit IgG secondary antibody (A‐11012; 1:200) for 2 h in the dark, cured with ProLong Gold Antifade Reagent with DAPI (4′,6‐diamidino‐2‐phenylindole), and stored at 4°C until imaging. Cell images were obtained with 63× oil immersion objective (Glut 2: excitation wavelength: 557 nm, emission wavelength: 572 nm; DAPI: excitation wavelength: 353 nm; emission wavelength: 465 nm) using a Carl Zeiss LSM 900 Laser Scanning Microscope (Carl Zeiss AG, Germany).

[5] = test system: Akt (AKT serine/threonine kinase); test: Insulin receptor phospho antibody microarray: Akt; format: cell-based, human; conditions: VP 9.58 µM, HepG2, healthy state, related to the untreated control, p < 0.05
Experimental: (§3) Cells treated with VP (9.58 µM) and the untreated cells were tested using immunoassay proteomics. The IC50 value of VP obtained from the luminescence‐based DPP IV inhibition biochemical assay was used as the treatment concentration. Cells were treated as described in Section 2.4. An insulin receptor microarray was performed according to the manufacturer's instructions to test the protein expression of markers in the insulin signaling pathway (Insulin Receptor Phospho Antibody Array, PIG219, Full Moon BioSystem, Sunnyvale, CA, USA). Array signals were visualized with a 20× objective using a Widefield Fluorescence Microscope (Carl Zeiss AG, Germany) and were analyzed as previously described. Student's t‐test was used to assess the differences between the VP treatment and the negative control.

[6] = test system: mTOR (Mechanistic target of rapamycin); test: Insulin receptor phospho antibody microarray: mTOR; format: cell-based, human; conditions: VP 9.58 µM, HepG2, healthy state, related to the untreated control, p < 0.05
Experimental: as §3

[7] = test system: AMPK1/AMPK2 (AMP‐activated protein kinase catalytic subunit alpha‐1/2); test: Insulin receptor phospho antibody microarray: AMPK1/AMPK2; format: cell-based, human; conditions: VP 9.58 µM, HepG2, healthy state, related to the untreated control, p < 0.05
Experimental: as §3

[8] = test system: Shc (SHC‐transforming protein 1); test: Insulin receptor phospho antibody microarray: Shc; format: cell-based, human; conditions: VP 9.58 µM, HepG2, healthy state, related to the untreated control, p < 0.05
Experimental: as §3

[9] = test system: PP2A‐α (Protein phosphatase 2 alpha); test: Insulin receptor phospho antibody microarray: PP2A‐α; format: cell-based, human; conditions: VP 9.58 µM, HepG2, healthy state, related to the untreated control, p < 0.05
Experimental: as §3

IR (Insulin receptor) = test: Insulin receptor phospho antibody microarray: IR; format: cell-based, human; conditions: VP 9.58 µM, HepG2, healthy state, related to the untreated control, p < 0.05
Experimental: as §3

[10] = test system: Akt1S1 (AKT1 substrate 1); test: Insulin receptor phospho antibody microarray: Akt1S1; format: cell-based, human; conditions: VP 9.58 µM, HepG2, healthy state, related to the untreated control, p < 0.05
Experimental: as §3

[11] = test system: IRS‐1 (Insulin receptor substrate 1); test: Insulin receptor phospho antibody microarray: IRS‐1; format: cell-based, human; conditions: VP 9.58 µM, HepG2, healthy state, related to the untreated control, p < 0.05
Experimental: as §3

T1 sequence (P27487 whole entry): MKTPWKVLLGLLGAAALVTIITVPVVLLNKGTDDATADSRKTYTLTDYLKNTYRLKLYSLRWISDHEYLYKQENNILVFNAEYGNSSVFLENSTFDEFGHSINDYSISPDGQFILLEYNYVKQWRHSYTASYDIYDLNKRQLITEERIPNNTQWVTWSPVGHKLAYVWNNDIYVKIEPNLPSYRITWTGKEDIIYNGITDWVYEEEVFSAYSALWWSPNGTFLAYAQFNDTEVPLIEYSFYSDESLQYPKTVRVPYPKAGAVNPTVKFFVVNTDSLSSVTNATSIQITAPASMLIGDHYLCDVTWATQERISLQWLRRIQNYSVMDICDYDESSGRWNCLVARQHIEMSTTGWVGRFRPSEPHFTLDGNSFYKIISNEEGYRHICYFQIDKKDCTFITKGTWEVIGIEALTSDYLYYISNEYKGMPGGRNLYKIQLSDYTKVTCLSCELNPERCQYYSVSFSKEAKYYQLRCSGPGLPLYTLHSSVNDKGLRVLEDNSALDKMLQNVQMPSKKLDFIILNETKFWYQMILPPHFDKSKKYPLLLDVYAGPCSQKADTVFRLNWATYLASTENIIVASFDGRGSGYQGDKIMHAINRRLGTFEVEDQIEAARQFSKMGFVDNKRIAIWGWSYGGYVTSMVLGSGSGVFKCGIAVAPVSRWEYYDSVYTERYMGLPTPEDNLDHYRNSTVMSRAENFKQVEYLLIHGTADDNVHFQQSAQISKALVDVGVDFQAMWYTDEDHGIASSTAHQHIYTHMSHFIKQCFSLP
Chain of purified human DPP IV enzyme (P27487 whole entry): as above

Compound: CC[C@H](C)[C@H](N)C(=O)N1CCC[C@H]1C(=O)N[C@@H](C)C(=O)O [IPA, Ile‐Pro‐Ala] (H-Ile-Pro-Ala-OH)
- IC20 [1]: 33.1 µM
- pIC50 [1]: 4.15
- IC20 [2]: 3.66 µM
- pIC50 ([2]; read-out: DPP IV inhibition IC50): 5.10

Compound: CC#CCn1c(N2CCC[C@@H](N)C2)nc2c1c(=O)n(Cc1nc(C)c3ccccc3n1)c(=O)n2C [linagliptin, Linagliptin, reference compound]
- IRS‐1 protein expression, increase over untreated controls (IRS‐1): > 50%
- Akt‐1 protein expression, increase over untreated controls (Akt‐1): > 25%
- Glut 2 protein expression, increase over untreated controls (Glut 2 [3]): > 25%
- ACCα protein expression, change versus untreated controls (ACCα): no changes
- Glut 2 fluorescence emission, higher than the untreated control (Glut 2 [4]): 36%
- Glut 2 fluorescence emission, increase compared to the untreated insulin‐resistant cells (Glut 2 [4]): > 14%

Compound: Asp‐Leu‐Asp‐Val [DLDV]
- IRS‐1 protein expression, increase over untreated controls (IRS‐1): no differences
- IRS‐1 protein expression, increase over untreated insulin‐resistant cells (IRS‐1): no differences
- Akt‐1 protein expression, increase over untreated controls (Akt‐1): no differences
- Akt‐1 protein expression, increase over untreated insulin‐resistant cells (Akt‐1): no differences
- Glut 2 protein expression, increase over untreated controls (Glut 2 [3]): no differences
- Glut 2 protein expression, increase over untreated insulin‐resistant cells (Glut 2 [3]): no differences
- ACCα protein expression, change versus untreated controls (ACCα): no differences
- ACCα protein expression, change versus untreated insulin‐resistant cells (ACCα): no differences

Compound: Leu‐Leu‐Ser [LLS]
- IC20 [1]: 40.1 µM
- IC20 [2]: 7.13 µM

Compound: CC(C)[C@H](N)C(=O)N1CCC[C@H]1C(=O)O [VP, Val‐Pro] (H-Val-Pro-OH; N-terminus and C-terminus assumed)
- IC20 [1]: 200 µM
- IC20 [2]: 4.69 µM
- Akt Phosphorylated/Non‐phosphorylated ratio [5]: 3.9^* Fold Change
- mTOR Phosphorylated/Non‐phosphorylated ratio [6]: 3.6^* Fold Change
- AMPK1/AMPK2 Phosphorylated/Non‐phosphorylated ratio [7]: 3.5^* Fold Change
- Shc Phosphorylated/Non‐phosphorylated ratio [8]: 3.2^* Fold Change
- PP2A‐α Phosphorylated/Non‐phosphorylated ratio [9]: 2.6^* Fold Change
- IR Phosphorylated/Non‐phosphorylated ratio (IR (Insulin receptor)): 1.7^* Fold Change
- Akt1S1 Phosphorylated/Non‐phosphorylated ratio [10]: 1.3^* Fold Change
- IRS‐1 Phosphorylated/Non‐phosphorylated ratio [11]: 0.2^* Fold Change
- IRS‐1 protein expression, increase over untreated controls (IRS‐1): > 50%
- IRS‐1 protein expression, increase over untreated insulin‐resistant cells (IRS‐1): > 25%
- Akt‐1 protein expression, increase over untreated controls (Akt‐1): > 25%
- Akt‐1 protein expression, increase over untreated insulin‐resistant cells (Akt‐1): > 25%
- Power in increasing Glut 2 protein expression relative to the digested adzuki bean β‐vignin protein (Glut 2 [3]; HepG2, comparison based on previous data): > 100 times
- Glut 2 protein expression, increase over untreated controls (Glut 2 [3]): > 25%
- Glut 2 protein expression, increase over untreated insulin‐resistant cells (Glut 2 [3]): > 25%
- ACCα protein expression, change versus untreated controls (ACCα): no changes
- ACCα protein expression, change versus untreated insulin‐resistant cells (ACCα): not different
- Glut 2 fluorescence emission, higher than the untreated control (Glut 2 [4]): 36%
- Glut 2 fluorescence emission, increase compared to the untreated insulin‐resistant cells (Glut 2 [4]): > 14%

Compound: Phe‐Asn‐Glu [FNE]
- DPP IV inhibition IC5 [1]: 5.65 µM
- DPP IV inhibition IC5 [2]: 63.52 µM

Compound: Pro‐Met [PM]
- IC20 [1]: 59.4 µM
- IC20 [2]: 5.14 µM
